# Experimental data published in ChEMBL document CHEMBL1201862, “PubChem BioAssay data set” (2004).
#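 1) Cells in 96-well plates. 2) Compound, 48 h, 5 concentrations. 3) Linear interpolation between surrounding doses. 4) Unreached endpoint = highest concentration. Abbreviation: GI50, concentration required for 50% inhibition of growth.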 Active and inactive are the calls of the source. No stated cut-off is given here; in the data, active = GI50 up to about 1.1 µM and inactive = higher.
# Columns and labels:
# Test in all cases: NCI tumour cell line growth inhibition, 48 h
# SK-OV-3 = test system: SK-OV-3
# A549 = test system: A549
# OVCAR-3 = test system: OVCAR-3
# T47D = test system: T47D
# IGROV-1 = test system: IGROV-1
# NCI-H522 = test system: NCI-H522
# SW-620 = test system: SW-620
# NCI-H23 = test system: NCI-H23
# Hs-578T = test system: Hs-578T
# MDA-N = test system: MDA-N
# M14 = test system: M14
# PC-3 = test system: PC-3
# UACC-257 = test system: UACC-257
# COLO 205 = test system: COLO 205
# SF-268 = test system: SF-268
# U-251 = test system: U-251
# HL-60 = test system: HL-60
# HCT-15 = test system: HCT-15
# HOP-62 = test system: HOP-62
# SR = test system: SR
# TK-10 = test system: TK-10
# 786-0 = test system: 786-0
# HT-29 = test system: HT-29
# NCI/ADR-RES = test system: NCI/ADR-RES
# Malme-3M = test system: Malme-3M
# SN12C = test system: SN12C
# EKVX = test system: EKVX
# NCI-H226 = test system: NCI-H226
# SF-539 = test system: SF-539
# OVCAR-5 = test system: OVCAR-5
# HOP-92 = test system: HOP-92
# UACC-62 = test system: UACC-62
# MDA-MB-435 = test system: MDA-MB-435
# HCT-116 = test system: HCT-116
# SNB-75 = test system: SNB-75
# NCI-H460 = test system: NCI-H460
# SK-MEL-2 = test system: SK-MEL-2
# OVCAR-8 = test system: OVCAR-8
# SF-295 = test system: SF-295
# ACHN = test system: ACHN
# LOX IMVI = test system: LOX IMVI
# SK-MEL-28 = test system: SK-MEL-28
# K562 = test system: K562
# OVCAR-4 = test system: OVCAR-4
# RPMI-8226 = test system: RPMI-8226
# HCC 2998 = test system: HCC 2998
# KM12 = test system: KM12
# A498 = test system: A498
# SNB-19 = test system: SNB-19
# CAKI-1 = test system: CAKI-1
# DU-145 = test system: DU-145
# SK-MEL-5 = test system: SK-MEL-5
# MCF7 = test system: MCF7
# MOLT-4 = test system: MOLT-4
# UO-31 = test system: UO-31
# CCRF-CEM = test system: CCRF-CEM
# MDA-MB-231 = test system: MDA-MB-231
# RXF 393 = test system: RXF 393
compound,measurement,setting,value
CC1(C)OP(=O)(c2ccccc2)C=C1Br (configuration not stated),GI50,SK-OV-3,> 100 µM (inactive)
same,GI50,A549,> 100 µM (inactive)
same,GI50,OVCAR-3,> 100 µM (inactive)
same,GI50,T47D,> 100 µM (inactive)
same,GI50,IGROV-1,> 100 µM (inactive)
same,GI50,NCI-H522,> 100 µM (inactive)
same,GI50,SW-620,> 100 µM (inactive)
same,GI50,NCI-H23,> 100 µM (inactive)
same,GI50,Hs-578T,> 100 µM (inactive)
same,GI50,MDA-N,> 100 µM (inactive)
same,GI50,M14,> 100 µM (inactive)
same,GI50,PC-3,> 100 µM (inactive)
same,GI50,UACC-257,> 100 µM (inactive)
same,GI50,COLO 205,> 100 µM (inactive)
same,GI50,SF-268,> 100 µM (inactive)
same,GI50,U-251,> 100 µM (inactive)
same,GI50,HL-60,21 µM (inactive)
same,GI50,HCT-15,> 100 µM
same,GI50,HOP-62,> 100 µM (inactive)
same,GI50,SR,> 100 µM (inactive)
same,GI50,TK-10,> 100 µM (inactive)
same,GI50,786-0,> 100 µM (inactive)
same,GI50,HT-29,> 100 µM (inactive)
same,GI50,NCI/ADR-RES,> 100 µM (inactive)
same,GI50,Malme-3M,> 100 µM (inactive)
same,GI50,SN12C,> 100 µM (inactive)
same,GI50,EKVX,> 100 µM (inactive)
same,GI50,NCI-H226,> 100 µM (inactive)
same,GI50,SF-539,> 100 µM (inactive)
same,GI50,OVCAR-5,> 100 µM (inactive)
same,GI50,HOP-92,> 100 µM (inactive)
same,GI50,UACC-62,> 100 µM (inactive)
same,GI50,MDA-MB-435,> 100 µM (inactive)
same,GI50,HCT-116,> 100 µM (inactive)
same,GI50,SNB-75,> 100 µM (inactive)
same,GI50,NCI-H460,> 100 µM (inactive)
same,GI50,SK-MEL-2,> 100 µM (inactive)
same,GI50,OVCAR-8,> 100 µM (inactive)
same,GI50,SF-295,> 100 µM (inactive)
same,GI50,ACHN,> 100 µM (inactive)
same,GI50,LOX IMVI,> 100 µM (inactive)
same,GI50,SK-MEL-28,> 100 µM (inactive)
same,GI50,K562,> 100 µM (inactive)
same,GI50,OVCAR-4,> 100 µM (inactive)
same,GI50,RPMI-8226,0.348 µM (active)
same,GI50,HCC 2998,> 100 µM (inactive)
same,GI50,KM12,> 100 µM (inactive)
same,GI50,A498,> 100 µM (inactive)
same,GI50,SNB-19,> 100 µM (inactive)
same,GI50,CAKI-1,> 100 µM (inactive)
same,GI50,DU-145,> 100 µM (inactive)
same,GI50,SK-MEL-5,> 100 µM (inactive)
CSC1=N/C(=C\c2ccc(C)cc2)C(=O)N1CN1CCOCC1,GI50,SK-OV-3,> 100 µM (inactive)
same,GI50,A549,92.3 µM (inactive)
same,GI50,OVCAR-3,> 100 µM (inactive)
same,GI50,MCF7,31.2 µM (inactive)
same,GI50,IGROV-1,28.2 µM (inactive)
same,GI50,NCI-H522,97.5 µM (inactive)
same,GI50,SW-620,40 µM (inactive)
same,GI50,NCI-H23,92.7 µM (inactive)
same,GI50,Hs-578T,84.9 µM (inactive)
same,GI50,MDA-N,> 100 µM (inactive)
same,GI50,M14,95.1 µM (inactive)
same,GI50,PC-3,58.9 µM (inactive)
same,GI50,MOLT-4,28.9 µM (inactive)
same,GI50,COLO 205,42.7 µM (inactive)
same,GI50,SF-268,47.6 µM (inactive)
same,GI50,U-251,40.8 µM (inactive)
same,GI50,HL-60,> 100 µM (inactive)
same,GI50,HCT-15,34.1 µM
same,GI50,HOP-62,89.1 µM (inactive)
same,GI50,UO-31,20.2 µM (inactive)
same,GI50,SR,69.3 µM (inactive)
same,GI50,TK-10,> 100 µM (inactive)
same,GI50,786-0,44.7 µM (inactive)
same,GI50,NCI/ADR-RES,19.5 µM (inactive)
same,GI50,Malme-3M,> 100 µM (inactive)
same,GI50,SN12C,> 100 µM (inactive)
same,GI50,EKVX,47.4 µM (inactive)
same,GI50,NCI-H226,31.3 µM (inactive)
same,GI50,OVCAR-5,> 100 µM (inactive)
same,GI50,HOP-92,> 100 µM (inactive)
same,GI50,UACC-62,93.3 µM (inactive)
same,GI50,MDA-MB-435,99.8 µM (inactive)
same,GI50,CCRF-CEM,41.4 µM (inactive)
same,GI50,HCT-116,35.7 µM (inactive)
same,GI50,SNB-75,46.3 µM (inactive)
same,GI50,SK-MEL-2,> 100 µM (inactive)
same,GI50,OVCAR-8,45.6 µM (inactive)
same,GI50,SF-295,> 100 µM (inactive)
same,GI50,ACHN,35.4 µM (inactive)
same,GI50,LOX IMVI,39.9 µM (inactive)
same,GI50,SK-MEL-28,> 10 µM (inactive)
same,GI50,K562,34.3 µM (inactive)
same,GI50,OVCAR-4,0.622 µM (active)
same,GI50,RPMI-8226,23.7 µM (inactive)
same,GI50,KM12,91.8 µM (inactive)
same,GI50,A498,98.2 µM (inactive)
same,GI50,SNB-19,37.5 µM (inactive)
same,GI50,MDA-MB-231,> 100 µM (inactive)
same,GI50,DU-145,76 µM (inactive)
same,GI50,SK-MEL-5,55.8 µM (inactive)
CN(C)C1C(=O)C(C(N)=O)=C(O)C2(O)C(O)=C3C(=O)c4c(O)cccc4C(C)(O)C3CC12 (configuration not stated),GI50,SK-OV-3,76.6 µM (inactive)
same,GI50,A549,60.8 µM (inactive)
same,GI50,IGROV-1,52.8 µM (inactive)
same,GI50,NCI-H522,78 µM (inactive)
same,GI50,PC-3,> 100 µM (inactive)
same,GI50,UACC-257,> 100 µM (inactive)
same,GI50,HCT-15,50.5 µM
same,GI50,NCI/ADR-RES,76.4 µM (inactive)
same,GI50,Malme-3M,67.3 µM (inactive)
same,GI50,RXF 393,43.6 µM (inactive)
same,GI50,NCI-H226,82.6 µM (inactive)
same,GI50,OVCAR-5,> 100 µM (inactive)
same,GI50,HOP-92,> 100 µM (inactive)
same,GI50,NCI-H460,52 µM (inactive)
same,GI50,LOX IMVI,33.7 µM (inactive)
same,GI50,SK-MEL-28,93.5 µM (inactive)
same,GI50,KM12,73.8 µM (inactive)
same,GI50,A498,43.8 µM (inactive)
same,GI50,CAKI-1,38.7 µM (inactive)
same,GI50,DU-145,68.4 µM (inactive)
